According to PubChem BioAssay (NCI):
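Method: 48-hour compound exposure of cells in 96-well plates, five concentrations, linear interpolation of endpoints. Here, GI50 denotes the concentration required for 50% inhibition of growth. TGI denotes the concentration required for complete inhibition of growth.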

Columns and labels:
Experiment in all cases: growth of human tumour cells (NCI), 48 h
SF-268 CNS = test system: SF-268 CNS
BT-549 breast = test system: BT-549 breast
MALME-3M melanoma = test system: MALME-3M melanoma
NCI/ADR-RES ovarian = test system: NCI/ADR-RES ovarian
DU-145 prostate = test system: DU-145 prostate
HS 578T breast = test system: HS 578T breast
PC-3 prostate = test system: PC-3 prostate
SK-OV-3 ovarian = test system: SK-OV-3 ovarian
A498 renal = test system: A498 renal
CAKI-1 renal = test system: CAKI-1 renal

## COc1ccc(C2NN=C3c4ccccc4CCC32)cc1 (stereo not given)
SF-268 CNS
  GI50: 15700 nM
  TGI: > 100 µM
BT-549 breast
  GI50: 5.29 µM
  TGI: 95.4 µM
MALME-3M melanoma
  GI50: 5220 nM
  TGI: 38.4 µM
NCI/ADR-RES ovarian
  GI50: 3.99 µM
  TGI: 38.3 µM
DU-145 prostate
  GI50: 19200 nM
  TGI: 72.6 µM
HS 578T breast
  GI50: 15 µM
  TGI: > 100 µM
PC-3 prostate
  GI50: 15.8 µM
  TGI: > 100 µM
SK-OV-3 ovarian
  GI50: 20.4 µM
  TGI: > 100 µM
A498 renal
  GI50: 19.4 µM
  TGI: 65 µM
CAKI-1 renal
  GI50: 9.38 µM
  TGI: 21.4 µM

## C=C(C(=O)OC)[C@@H]1CC2OC1C(=O)C(C)CCC/C(C)=C/CC[C@@]2(C)O (stereo not given in full)
SF-268 CNS
  GI50: 39400 nM
  TGI: > 100 µM
BT-549 breast
  GI50: 25.2 µM
  TGI: 55.7 µM
MALME-3M melanoma
  GI50: 10900 nM
  TGI: 31.1 µM
NCI/ADR-RES ovarian
  GI50: 28.8 µM
  TGI: 86.4 µM
DU-145 prostate
  GI50: 15000 nM
  TGI: 28.2 µM
HS 578T breast
  GI50: 36.9 µM
  TGI: > 100 µM
PC-3 prostate
  GI50: 36.8 µM
  TGI: > 100 µM
SK-OV-3 ovarian
  GI50: > 100 µM
  TGI: > 100 µM
A498 renal
  GI50: 37.2 µM
  TGI: 96.8 µM
CAKI-1 renal
  GI50: 11.4 µM
  TGI: 27.6 µM

## COc1ccc2nc(C)cc(Sc3nc4ccccc4s3)c2c1
SF-268 CNS
  GI50: 2020 nM
  TGI: 5.51 µM
BT-549 breast
  GI50: 1.28 µM
  TGI: 4.45 µM
MALME-3M melanoma
  GI50: 426 nM
  TGI: 11.9 µM
NCI/ADR-RES ovarian
  GI50: 1.43 µM
  TGI: 4.42 µM
DU-145 prostate
  GI50: 2200 nM
  TGI: 7.55 µM
HS 578T breast
  GI50: 0.923 µM
  TGI: 3.57 µM
PC-3 prostate
  GI50: 0.288 µM
  TGI: 3 µM
SK-OV-3 ovarian
  GI50: 1.19 µM
  TGI: 4.75 µM
A498 renal
  GI50: 1.37 µM
  TGI: 4.87 µM
CAKI-1 renal
  TGI: 0.626 µM

## CN1CCN(C(=O)c2ccc(NC(=O)Nc3ccc(-c4nc(N5CCOCC5)c5cccn5n4)cc3)cc2)CC1
SF-268 CNS
  GI50: 39.9 nM
  TGI: 12 µM
BT-549 breast
  GI50: 0.104 µM
  TGI: 0.789 µM
MALME-3M melanoma
  GI50: 29.5 nM
  TGI: 0.194 µM
NCI/ADR-RES ovarian
  GI50: 8.06 µM
  TGI: > 81.6 µM
DU-145 prostate
  GI50: 34.8 nM
  TGI: 12 µM
HS 578T breast
  GI50: 0.0177 µM
  TGI: 0.082 µM
PC-3 prostate
  GI50: 0.0488 µM
  TGI: 19.3 µM
SK-OV-3 ovarian
  GI50: 0.0223 µM
  TGI: 0.121 µM
A498 renal
  GI50: 0.0172 µM
  TGI: 0.0664 µM
CAKI-1 renal
  GI50: 0.542 µM
  TGI: 10.7 µM

## CC(C)C[C@H](NC(=O)Cn1cccc(CNC(=O)c2ccccc2)c1=O)B(O)O
SF-268 CNS
  GI50: 400 nM
  TGI: 2.95 µM
BT-549 breast
  GI50: 0.162 µM
  TGI: 1.54 µM
MALME-3M melanoma
  GI50: 160 nM
  TGI: 1.88 µM
NCI/ADR-RES ovarian
  GI50: > 69.1 µM
  TGI: > 100 µM
DU-145 prostate
  GI50: 734 nM
  TGI: 45.1 µM
HS 578T breast
  GI50: 0.335 µM
PC-3 prostate
  GI50: 3.08 µM
  TGI: > 59.1 µM
SK-OV-3 ovarian
  GI50: 1.2 µM
  TGI: 41 µM
A498 renal
  GI50: 0.136 µM
  TGI: 0.706 µM
CAKI-1 renal
  GI50: 3.7 µM
  TGI: 44.9 µM

## CC1=C(CO)C(=O)O[C@@H]([C@@H](C)[C@H]2CC[C@H]3[C@@H]4C[C@H]5O[C@]56[C@@H](O)C=CC(=O)[C@]6(C)[C@H]4CC[C@]23C)C1
SF-268 CNS
  TGI: 1.29 µM
BT-549 breast
  GI50: 0.79 µM
  TGI: 2.15 µM
MALME-3M melanoma
  TGI: 0.826 µM
NCI/ADR-RES ovarian
  GI50: 0.821 µM
  TGI: 11.2 µM
DU-145 prostate
  GI50: 294 nM
  TGI: 0.91 µM
HS 578T breast
  GI50: 0.402 µM
  TGI: > 100 µM
PC-3 prostate
  GI50: 1.03 µM
  TGI: 2.46 µM
SK-OV-3 ovarian
  GI50: 3.93 µM
  TGI: 13.8 µM
A498 renal
  GI50: 0.408 µM
  TGI: 1.53 µM
CAKI-1 renal
  TGI: 0.773 µM

## Cc1cc(=O)[nH]c(N/N=C/c2ccccc2O)n1
SF-268 CNS
  GI50: 7750 nM
  TGI: > 100 µM
BT-549 breast
  GI50: 25.3 µM
  TGI: > 100 µM
MALME-3M melanoma
  GI50: 4490 nM
  TGI: > 100 µM
NCI/ADR-RES ovarian
  GI50: 3.52 µM
  TGI: > 100 µM
DU-145 prostate
  GI50: 15300 nM
  TGI: > 100 µM
HS 578T breast
  GI50: > 100 µM
  TGI: > 100 µM
PC-3 prostate
  GI50: 4.95 µM
  TGI: > 100 µM
SK-OV-3 ovarian
  GI50: 6.88 µM
  TGI: > 100 µM
A498 renal
  GI50: 20.5 µM
  TGI: 93.2 µM
CAKI-1 renal
  GI50: 5.19 µM
  TGI: > 100 µM

## O=C1NC(=O)C(c2cccc(Cl)c2)=C1Nc1ccc(Cl)c(C(=O)O)c1
SF-268 CNS
  GI50: > 25000 nM
  TGI: > 25 µM
BT-549 breast
  GI50: > 25 µM
  TGI: > 25 µM
MALME-3M melanoma
  GI50: > 25000 nM
  TGI: > 25 µM
NCI/ADR-RES ovarian
  GI50: > 25 µM
  TGI: > 25 µM
DU-145 prostate
  GI50: > 25000 nM
  TGI: > 25 µM
HS 578T breast
  GI50: > 25 µM
  TGI: > 25 µM
PC-3 prostate
  GI50: > 25 µM
  TGI: > 25 µM
SK-OV-3 ovarian
  GI50: > 25 µM
  TGI: > 25 µM
A498 renal
  GI50: > 25 µM
  TGI: > 25 µM
CAKI-1 renal
  GI50: > 25 µM
  TGI: > 25 µM

## CCCCC#Cc1c(I)n(C2OC(CO[Si](C)(C)C(C)(C)C)C3OC(C)(C)OC32)c(=O)n(C(=O)c2ccccc2)c1=O (stereo not given)
SF-268 CNS
  GI50: 2060 nM
  TGI: 4.85 µM
BT-549 breast
  GI50: 8.98 µM
  TGI: 20.4 µM
MALME-3M melanoma
  GI50: 2500 nM
  TGI: 4.91 µM
NCI/ADR-RES ovarian
  GI50: 18.5 µM
  TGI: 49.3 µM
DU-145 prostate
  GI50: 2250 nM
  TGI: 4.68 µM
HS 578T breast
  GI50: 7.17 µM
  TGI: 43.6 µM
PC-3 prostate
  GI50: 10.3 µM
  TGI: 22.9 µM
SK-OV-3 ovarian
  GI50: 14.8 µM
  TGI: 27.9 µM
A498 renal
  GI50: 30.9 µM
  TGI: 98.3 µM
CAKI-1 renal
  GI50: 3.67 µM
  TGI: 18.4 µM

## OCCCCC#Cc1ccccc1C#Cc1cccnc1
SF-268 CNS
  GI50: 40300 nM
  TGI: > 100 µM
BT-549 breast
  GI50: 28.4 µM
  TGI: > 100 µM
MALME-3M melanoma
  GI50: 37800 nM
  TGI: 92.2 µM
NCI/ADR-RES ovarian
  GI50: 28.9 µM
  TGI: > 100 µM
DU-145 prostate
  GI50: 47300 nM
  TGI: > 100 µM
HS 578T breast
  GI50: 44.9 µM
  TGI: > 100 µM
PC-3 prostate
  GI50: 36.3 µM
  TGI: > 100 µM
SK-OV-3 ovarian
  GI50: 57.3 µM
  TGI: > 100 µM
A498 renal
  GI50: 28.5 µM
  TGI: 88.4 µM
CAKI-1 renal
  GI50: 29.1 µM
  TGI: 83.5 µM

## CCN1CCN(c2cc(C(=O)Nc3cccc(Nc4ccc5c(OC)cccc5n4)c3)cc(C(F)(F)F)c2)CC1
SF-268 CNS
  GI50: 1760 nM
  TGI: 7.41 µM
BT-549 breast
  GI50: 3.78 µM
  TGI: 8.67 µM
MALME-3M melanoma
  GI50: 611 nM
  TGI: 1.33 µM
NCI/ADR-RES ovarian
  GI50: 1.29 µM
  TGI: 6.69 µM
DU-145 prostate
  GI50: 1880 nM
  TGI: 7.33 µM
HS 578T breast
  GI50: 3.61 µM
  TGI: 11.9 µM
PC-3 prostate
  GI50: 0.805 µM
  TGI: 2.5 µM
SK-OV-3 ovarian
  GI50: 4.6 µM
  TGI: 11 µM
A498 renal
  GI50: 4.94 µM
  TGI: 10.5 µM
CAKI-1 renal
  GI50: 0.917 µM
  TGI: 4.97 µM
